These results are taken from patent US9468641B2, “Anti-inflammatory pharmaceutical composition comprising benzopyranyl tetracycles” (SEOUL NATIONAL UNIVERSITY R&DB FOUNDATION, priority 2014, dated 2016).

One assay relates to NF-κB signaling (p65). The assay can be described thus: Immunofluorescence staining of nuclear translocation of p65. Format: cell-based. The note with it: LPS stimulation, FIG. 5. The protocol:
Cells were pretreated with ICM and LPS for 1 hr and then fixed with 4% paraformaldehyde for 30 min at 20° C. and with cold methanol for 10 min at −20° C. After permeabilization with 0.3% Triton X-100 and PBS for 10 min, the fixed cells were blocked with 1% normal horse serum for 1 hr and incubated with mouse anti-p65 antibody at 4° C. for 12˜16 hrs. After washing with PBS containing 0.05% Tween-20 (PBST), Alexa Fluor-488-labeled goat anti-mouse IgG antibody was added to the sample, incubated for 1 hr at room temperature and washed with PBST. Nuclei were visualized by DAPI staining. Samples were analyzed by fluorescence microscopy.

In a further assay the target is T1, HMGB2 (Mus musculus, UniProt P30681).
T1 construct: endogenous in cells
T1 sequence (P30681 1-210): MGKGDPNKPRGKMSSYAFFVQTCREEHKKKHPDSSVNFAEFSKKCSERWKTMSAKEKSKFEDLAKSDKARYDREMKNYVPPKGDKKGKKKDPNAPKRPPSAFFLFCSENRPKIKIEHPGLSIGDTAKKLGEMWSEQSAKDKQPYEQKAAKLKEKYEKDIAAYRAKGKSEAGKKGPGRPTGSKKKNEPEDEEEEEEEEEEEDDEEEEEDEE
In words: Pull-down assay with immunoblotting for HMGB2. The settings on record: ICM 20 μM as soluble competitor, ICM-BP 5 μM, FIG. 12. Format: binding. As to the method:
Cells were treated with the compounds (ICM-BP alone or ICM-BP/ICM in combination) for 30 min and then with LPS for 2 hrs. Afterwards, the cells were irradiated with 365-nm UV light for 30 min, washed with PBS and stored at −78° C. They were lysed in RIPA buffer containing a protease inhibitor cocktail, and the protein concentration was adjusted to approximately 1 mg/ml. The proteome was labeled with Cy5-azide (40 μM), TBTA (100 μM), CuSO4 (1 mM), TCEP (1 mM) and t-BuOH (5%) for 1 hrs. The mixture was treated with acetone at −20° C. for […] to precipitate proteins. After centrifugation at 4° C. and 14,000 rpm for […], the pellet was washed twice with cold acetone. For 1-D gel analysis, the pellet was dissolved in Laemmli sample buffer and analyzed by electrophoresis. For 2-D gel analysis, the pellet was dissolved in rehydration buffer. The proteome labeled with ICM-BP (test group) and the control (labeled with ICM-BP/ICM) were mixed (1:1 ratio). The mixed proteomes were analyzed by 2-D gel electrophoresis. In-gel fluorescence was scanned with a Typhoon Trio (GE Healthcare).
Cell lysates were prepared according to the same protocol used for the in-gel analysis (lyzed in RIPA buffer containing a protease inhibitor cocktail). […] Samples were boiled with Laemmli sample buffer, and analyzed by electrophoresis and immunoblotting for HMGB2.
For orientation: In western blotting, separated proteins are transferred to a membrane and probed.

For the next assay, the target named is T2, purified HMGB2 protein (Homo sapiens, UniProt P26583).
T2 sequence (P26583 1-209): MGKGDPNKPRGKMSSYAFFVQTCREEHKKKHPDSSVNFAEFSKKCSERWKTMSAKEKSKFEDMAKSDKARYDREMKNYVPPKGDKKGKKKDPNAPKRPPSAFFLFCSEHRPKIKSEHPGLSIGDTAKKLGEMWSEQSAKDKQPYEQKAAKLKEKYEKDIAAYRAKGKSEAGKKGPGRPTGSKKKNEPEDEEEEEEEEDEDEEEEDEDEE
In words: SPR (surface plasmon resonance) assay. It is filed as binding. The note with it: 1, 15, 30, 50, 75, and 100 μM ICM, FIG. 13. The protocol: To determine the dissociation constant of the interaction of ICM with HMGB, SPR analysis was performed using Biacore T100. A carboxyl group bound onto a CM5 chip of the biosensor was activated with EDC(1-ethyl-3-(3-dimethylaminopropyl)-carbodiimide) and NHS(N-hydroxysuccinimide) to form reactive succinimide ester. HMGB1 (10 mM Na-acetate, pH 4.0) and HMGB2 (10 mM Na-acetate, pH 4.5) proteins were immobilized via an amide bond onto the sensor chip, followed by quenching excess succinimide ester with 1 M ethanolamine-HCl (pH 8.0). PBS was used as a running buffer for the immobilization. After immobilization, various concentrations of ICM were injected (for 60 sec at a flow rate of 30 μl/min). […] For this, a buffer containing 10-mM HEPES (pH 7.4), 5% DMSO, 150 mM NaCl, 3 mM EDTA, and 0.005% P20 was injected. Binding was measured at 25° C. The measurements were analyzed using Biacore T100 Evaluation software (GE Healthcare). Finally, the curve was obtained by normalizing to the control. The dissociation constant was calculated by fitting the curve to the 1:1 binding model.

Take `CC1(C)Oc2cc(O)ccc2C2C1=CCn1c(=O)n(-c3ccccc3)c(=O)n12` (stereo not drawn) [ICM]: the “nuclear translocation of p65” value in the assay with NF-κB signaling (p65) is listed as “suppressed NF-κB signaling”. Moreover, on HMGB2, the “competition of ICM-BP binding to HMGB2” value is “markedly lowered the level of binding for HMGB2”. Also, the “binding to HMGB (SPR sensorgram)” value on purified HMGB2 protein is recorded as “binds directly to HMGB”.
